Results taken from US11753374B2, “Compounds for the treatment of acute and chronic kidney disease” (Southern Research Institute, priority 2020, dated 2023).

System: heme oxygenase-1 (HO-1)
Experiment: High throughput screen: HO-1 promoter/enhancer luciferase reporter (pHOGL3/4.5+220) in stable HEK293 cells
Assay type: cell-based
Settings: Homo sapiens; for EC50: Table 1, evaluation of biaryl aminomaleimides, HO-1 induction; for Emax: Table 1, unit inferred, Emax as % of 5 μM hemin
Protocol: The generation of the pHOGL3/4.5+220 construct is described in Deshane, et al. (2010) “SpI regulates chromatin looping between an intronic enhancer and distal promoter of the human heme oxygenase-1 gene in renal cells” J Biol Chem 285(22): 16476-86. See also FIG. 1.
Briefly, BamHI sites were added to the 4.5-kb PCR product generated by long-range PCR from a bacterial artificial chromosome clone containing portions of chromosome 22 (accession no. Z82244), including the HO-1 gene. This fragment was cloned into the BglII restriction site of the multiple cloning region to make the parental clone (pHOGL3/4.5). The 220-bp intronic enhancer was amplified with SalI sites on either end and cloned into the SalI site of the vector to generate pHOGL3/4.5+220.
In order to generate cells that stably express luciferase expression vectors that lack a mammalian antibiotic selection cassette, HEK293 cells were co-transfected with either pHOGL3/4.5+220 (Deshane et al, 2010) or the Triple Mutant construct (Liby, Hock et al, 2005; Hock et al, 2007) and pcDNA3.1 Zeocin using Lipofectamine 2000. Cells were cultured in Zeocin (400 ug/ml; Invitrogen) for selection. Individual clones were sorted by flow cytometry and plated into a 96-well plate at a density of one cell per well. Clones were maintained and expanded in complete media (DMEM/10% FBS/1× antibiotic-antimycotic) supplemented with 100 ug/ml Zeocin, and incubated at 37° C. in 5% carbon dioxide. Incorporation of the Luciferase expression vectors was validated by assaying for luciferase.
A library of over 150,000 compounds, as well as a library of over 4,000 FDA approved compounds, were used in the HTS assay. […] This led to the identification of approximately 800 compounds that induce HO-1 and have desirable chemical structures. […] The In-Cell Western assay was optimized to screen for endogenous HO-1 in a high throughput platform, and results were validated by Western blot, real-time PCR, and enzyme activity assays. Additional RNA sequencing studies highlighted a role for the transcription factor Nrf2 and other targets in HO-1 induction by several small molecules.

Structure (SMILES) | EC50 | Emax
O=C1C=C(Nc2ccc(O)c(Cl)c2F)C(=O)N1c1ccccc1 [Compound 9] | 1.69 µM | 33.7%
O=C1C=C(Nc2cc(Cl)c(Cl)cc2O)C(=O)N1c1ccccc1 [Compound 16] | > 50 µM | –

Continued, in another order:

EC50 | Structure (SMILES) | Emax
3.08 µM | O=C1C=C(Nc2cc(F)c(O)c(F)c2)C(=O)N1c1ccccc1 [Compound 1, 3-(3,5-difluoro-4-hydroxy-anilino)-1-phenyl-pyrrole-2,5-dione] | 90.6%
> 50 µM | N#Cc1cccc(N2C(=O)C=C(Nc3cc(F)c(O)c(F)c3)C2=O)c1 [Compound 66] | –
31.3 µM | O=C1C=C(Nc2cc(Cl)c(O)c(Cl)c2)C(=O)N1c1ccccc1 [Compound 5] | 72.8%
